Measurements: ChEMBL document CHEMBL3856189, “Synthesis of novel diterpenoid analogs with in-vivo antitumor activity” (Eur J Med Chem, 2016)

Tested on: PC-3
Test: Selectivity index, ratio of IC50 for HAF cells to IC50 for human PC3 cells
Format: functional
Conditions: not given

Compound | Ratio IC50
COc1cc([C@@H]2c3cc4c(cc3[C@H](O)[C@H]3COC(=O)[C@H]23)OCO4)cc(OC)c1OC [PODOFILOX] | 0.8

Tested on: Mus musculus
Test: Acute toxicity in nude mouse xenografted with human T47D cells assessed as mortality at 5 to 40 mg/kg/day, ip administered daily for 18 days measured on day 18 post last dose
Format: organism-based
Conditions: in vivo, 432 h

Compound | Activity
COc1cc([C@@H]2c3cc4c(cc3[C@H](O)[C@H]3COC(=O)[C@H]23)OCO4)cc(OC)c1OC [PODOFILOX] | Toxic

Tested on: not listed separately
Test: Antiproliferative activity against human MDA-MB-231 cells after 96 hrs by SRB assay
Format: functional, cell-based
Conditions: MDA-MB-231, 96 h

Compound | IC50 [nM]
COc1cc([C@@H]2c3cc4c(cc3[C@H](O)[C@H]3COC(=O)[C@H]23)OCO4)cc(OC)c1OC [PODOFILOX] | 120

Tested on: Mus musculus
Test: Toxicity in nude mouse xenografted with human T47D cells assessed as organ damage at 5 mg/kg/day, ip administered daily for 18 days
Format: organism-based
Conditions: in vivo, 432 h

Compound | Activity
COc1cc([C@@H]2c3cc4c(cc3[C@H](O)[C@H]3COC(=O)[C@H]23)OCO4)cc(OC)c1OC [PODOFILOX] | Toxic

Tested on: T47D
Test: Induction of apoptosis in human T47D cells assessed as early apoptotic cells at 10 uM after 48 hrs by Annexin V-FITC/propidium iodide staining based flow cytometry (reference value: 1.75 %)
Format: functional
Conditions: not given

Compound | Activity [%]
COc1cc([C@@H]2c3cc4c(cc3[C@H](O)[C@H]3COC(=O)[C@H]23)OCO4)cc(OC)c1OC [PODOFILOX] | 7.47

Tested on: T47D
Test: Selectivity index, ratio of IC50 for HAF cells to IC50 for human T47D cells
Format: functional
Conditions: not given

Compound | Ratio IC50
COc1cc([C@@H]2c3cc4c(cc3[C@H](O)[C@H]3COC(=O)[C@H]23)OCO4)cc(OC)c1OC [PODOFILOX] | 0.8

Tested on: not listed separately
Test: Antiproliferative activity against human PC3 cells after 96 hrs by SRB assay
Format: functional, cell-based
Conditions: PC-3, 96 h

Compound | IC50 [nM]
COc1cc([C@@H]2c3cc4c(cc3[C@H](O)[C@H]3COC(=O)[C@H]23)OCO4)cc(OC)c1OC [PODOFILOX] | 50

Tested on: not listed separately
Test: Antiproliferative activity against human HT-29 cells after 96 hrs by SRB assay
Format: functional, cell-based
Conditions: HT-29, 96 h

Compound | IC50 [nM]
COc1cc([C@@H]2c3cc4c(cc3[C@H](O)[C@H]3COC(=O)[C@H]23)OCO4)cc(OC)c1OC [PODOFILOX] | 20

Tested on: not listed separately
Test: Selectivity index, ratio of IC50 for HAF cells to IC50 for human MDA-MB-231 cells
Format: functional
Conditions: not given

Compound | Ratio IC50
COc1cc([C@@H]2c3cc4c(cc3[C@H](O)[C@H]3COC(=O)[C@H]23)OCO4)cc(OC)c1OC [PODOFILOX] | 0.8

Tested on: not listed separately
Test: Antitumor activity against human T47D cells xenografted in nude mouse assessed as tumor weight at 5 mg/kg/day, ip administered daily for 18 days measured every 3 days during compound dosing (reference value: 882 +/- 149 mg)
Format: functional
Conditions: not given

Compound | Activity [mg]
COc1cc([C@@H]2c3cc4c(cc3[C@H](O)[C@H]3COC(=O)[C@H]23)OCO4)cc(OC)c1OC [PODOFILOX] | 200

Tested on: T47D
Test: Induction of apoptosis in human T47D cells assessed as late apoptotic cells at 10 uM after 48 hrs by Annexin V-FITC/propidium iodide staining based flow cytometry (reference value: 2.42 %)
Format: functional
Conditions: not given

Compound | Activity [%]
COc1cc([C@@H]2c3cc4c(cc3[C@H](O)[C@H]3COC(=O)[C@H]23)OCO4)cc(OC)c1OC [PODOFILOX] | 6.98

Tested on: not listed separately
Test: Antiproliferative activity against human MCF7 cells after 96 hrs by SRB assay
Format: functional, cell-based
Conditions: MCF7, 96 h

Compound | IC50 [nM]
COc1cc([C@@H]2c3cc4c(cc3[C@H](O)[C@H]3COC(=O)[C@H]23)OCO4)cc(OC)c1OC [PODOFILOX] | 10

Tested on: not listed separately
Test: (§1) Antimigratory activity in human T47D cells assessed as inhibition of cell migration after 12 hrs by crystal violet staining based transwell migration assay
Format: functional
Conditions: not given

Compound | EC50 [nM]
COc1cc([C@@H]2c3cc4c(cc3[C@H](O)[C@H]3COC(=O)[C@H]23)OCO4)cc(OC)c1OC [PODOFILOX] | 8980

Tested on: T47D
Test: as §1
Format: functional
Conditions: not given

Compound | Activity
COc1cc([C@@H]2c3cc4c(cc3[C@H](O)[C@H]3COC(=O)[C@H]23)OCO4)cc(OC)c1OC [PODOFILOX] | Dose-dependent effect

Tested on: Mus musculus
Test: Toxicity in nude mouse xenografted with human T47D cells assessed as body weight loss at 5 mg/kg/day, ip administered daily for 18 days measured every 3 days during compound dosing
Format: organism-based
Conditions: in vivo

Compound | Activity
COc1cc([C@@H]2c3cc4c(cc3[C@H](O)[C@H]3COC(=O)[C@H]23)OCO4)cc(OC)c1OC [PODOFILOX] | Toxic

Tested on: HL-60
Test: Selectivity index, ratio of IC50 for HAF cells to IC50 for human HL60 cells
Format: functional
Conditions: not given

Compound | Ratio IC50
COc1cc([C@@H]2c3cc4c(cc3[C@H](O)[C@H]3COC(=O)[C@H]23)OCO4)cc(OC)c1OC [PODOFILOX] | 0.8

Tested on: not listed separately
Test: Antitumor activity against human T47D cells xenografted in nude mouse assessed as tumor volume at 5 mg/kg/day, ip administered daily for 18 days measured every 3 days during compound dosing (reference value: 1220 +/- 127 mm3)
Format: functional
Conditions: not given

Compound | Activity [mm3]
COc1cc([C@@H]2c3cc4c(cc3[C@H](O)[C@H]3COC(=O)[C@H]23)OCO4)cc(OC)c1OC [PODOFILOX] | 407

Tested on: T47D
Test: Induction of apoptosis in human T47D cells assessed as late apoptotic cells at 20 uM after 48 hrs by Annexin V-FITC/propidium iodide staining based flow cytometry (reference value: 2.42 %)
Format: functional
Conditions: not given

Compound | Activity [%]
COc1cc([C@@H]2c3cc4c(cc3[C@H](O)[C@H]3COC(=O)[C@H]23)OCO4)cc(OC)c1OC [PODOFILOX] | 7.21

Tested on: T47D
Test: Induction of apoptosis in human T47D cells assessed as late apoptotic cells at 5 uM after 48 hrs by Annexin V-FITC/propidium iodide staining based flow cytometry (reference value: 2.42 %)
Format: functional
Conditions: not given

Compound | Activity [%]
COc1cc([C@@H]2c3cc4c(cc3[C@H](O)[C@H]3COC(=O)[C@H]23)OCO4)cc(OC)c1OC [PODOFILOX] | 4.45

Tested on: not listed separately
Test: (§2) Inhibition of colony formation in human T47D cells after 7 days by crystal violet staining based assay
Format: functional, cell-based
Conditions: 168 h

Compound | EC50 [nM]
COc1cc([C@@H]2c3cc4c(cc3[C@H](O)[C@H]3COC(=O)[C@H]23)OCO4)cc(OC)c1OC [PODOFILOX] | 2.97

Tested on: T47D
Test: as §2
Format: functional, cell-based
Conditions: not given

Compound | Activity
COc1cc([C@@H]2c3cc4c(cc3[C@H](O)[C@H]3COC(=O)[C@H]23)OCO4)cc(OC)c1OC [PODOFILOX] | Dose-dependent effect

Tested on: not listed separately
Test: Antiproliferative activity against human DU145 cells after 96 hrs by SRB assay
Format: functional, cell-based
Conditions: DU-145, 96 h

Compound | IC50 [nM]
COc1cc([C@@H]2c3cc4c(cc3[C@H](O)[C@H]3COC(=O)[C@H]23)OCO4)cc(OC)c1OC [PODOFILOX] | 10

Tested on: not listed separately
Test: Antiproliferative activity against human HL60 cells after 96 hrs by SRB assay
Format: functional, cell-based
Conditions: HL-60, 96 h

Compound | IC50 [nM]
COc1cc([C@@H]2c3cc4c(cc3[C@H](O)[C@H]3COC(=O)[C@H]23)OCO4)cc(OC)c1OC [PODOFILOX] | 480

Tested on: not listed separately
Test: Antiproliferative activity against HAF cells after 96 hrs by SRB assay
Format: cell-based
Conditions: Homo sapiens

Compound | IC50 [nM]
COc1cc([C@@H]2c3cc4c(cc3[C@H](O)[C@H]3COC(=O)[C@H]23)OCO4)cc(OC)c1OC [PODOFILOX] | 90

Tested on: DU-145
Test: Selectivity index, ratio of IC50 for HAF cells to IC50 for human DU145 cells
Format: functional
Conditions: not given

Compound | Ratio IC50
COc1cc([C@@H]2c3cc4c(cc3[C@H](O)[C@H]3COC(=O)[C@H]23)OCO4)cc(OC)c1OC [PODOFILOX] | 0.8

Tested on: not listed separately
Test: Selectivity index, ratio of IC50 for HAF cells to IC50 for human HT-29 cells
Format: functional
Conditions: not given

Compound | Ratio IC50
COc1cc([C@@H]2c3cc4c(cc3[C@H](O)[C@H]3COC(=O)[C@H]23)OCO4)cc(OC)c1OC [PODOFILOX] | 0.8

Tested on: Mus musculus
Test: Toxicity in nude mouse xenografted with human T47D cells assessed as diarrhoea at 5 mg/kg/day, ip administered daily for 18 days
Format: organism-based
Conditions: in vivo, 432 h

Compound | Activity
COc1cc([C@@H]2c3cc4c(cc3[C@H](O)[C@H]3COC(=O)[C@H]23)OCO4)cc(OC)c1OC [PODOFILOX] | Toxic

Tested on: HCT-116
Test: Selectivity index, ratio of IC50 for HAF cells to IC50 for human HCT116 cells
Format: functional
Conditions: not given

Compound | Ratio IC50
COc1cc([C@@H]2c3cc4c(cc3[C@H](O)[C@H]3COC(=O)[C@H]23)OCO4)cc(OC)c1OC [PODOFILOX] | 0.8

Tested on: not listed separately
Test: Antiproliferative activity against human HCT116 cells after 96 hrs by SRB assay
Format: functional, cell-based
Conditions: HCT-116, 96 h

Compound | IC50 [nM]
COc1cc([C@@H]2c3cc4c(cc3[C@H](O)[C@H]3COC(=O)[C@H]23)OCO4)cc(OC)c1OC [PODOFILOX] | 20

Tested on: MCF7
Test: Selectivity index, ratio of IC50 for HAF cells to IC50 for human MCF7 cells
Format: functional
Conditions: not given

Compound | Ratio IC50
COc1cc([C@@H]2c3cc4c(cc3[C@H](O)[C@H]3COC(=O)[C@H]23)OCO4)cc(OC)c1OC [PODOFILOX] | 0.8

Tested on: T47D
Test: Induction of apoptosis in human T47D cells assessed as early apoptotic cells at 20 uM after 48 hrs by Annexin V-FITC/propidium iodide staining based flow cytometry (reference value: 1.75 %)
Format: functional
Conditions: not given

Compound | Activity [%]
COc1cc([C@@H]2c3cc4c(cc3[C@H](O)[C@H]3COC(=O)[C@H]23)OCO4)cc(OC)c1OC [PODOFILOX] | 11.86

Tested on: not listed separately
Test: Antiproliferative activity against human T47D cells after 96 hrs by SRB assay
Format: functional, cell-based
Conditions: not given

Compound | IC50 [nM]
COc1cc([C@@H]2c3cc4c(cc3[C@H](O)[C@H]3COC(=O)[C@H]23)OCO4)cc(OC)c1OC [PODOFILOX] | 250

Tested on: T47D
Test: Induction of apoptosis in human T47D cells assessed as early apoptotic cells at 5 uM after 48 hrs by Annexin V-FITC/propidium iodide staining based flow cytometry (reference value: 1.75 %)
Format: functional
Conditions: not given

Compound | Activity [%]
COc1cc([C@@H]2c3cc4c(cc3[C@H](O)[C@H]3COC(=O)[C@H]23)OCO4)cc(OC)c1OC [PODOFILOX] | 4.97
